Ki and EC50 data for 8 molecules are collected here from patent publication US10781204B2, “TYK2 inhibitors and uses thereof” (Nimbus Lakshmi, Inc., priority 2015, dated 2020).

In one test the target is TYK2 (Homo sapiens (Human), UniProt P29597). Nature of the test: Tyk2 radioactive kinase assay. The format is biochemical. Particulars: ATP 10 μM. An outline of the steps:
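Recombinant human TYK2 (Invitrogen) was mixed with 20 μM peptide substrate in a buffer of 20 mM Hepes pH 7.5, 10 mM MgCl2, 1 mM EGTA, 0.02% Brij35, 0.02 mg/mL BSA, 0.1 mM […], 2 mM DTT and 1% DMSO, and compounds in DMSO were added. Adding ^33P-ATP (10 μM ATP) started the reaction, which ran 120 min at room temperature. Mixtures were then spotted onto P81 ion-exchange paper, washed thoroughly in 0.75% phosphoric acid, and counted for radioactivity.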

The target in the next test is JAK2 (Homo sapiens (Human), UniProt O60674). As to the kind of experiment: JAK2 radioactive kinase assay. Type of test: biochemical. The settings on record: ATP 10 μM. In a few lines: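 Radiometric assay in Hepes pH 7.5, MgCl2, EGTA, Brij35, BSA, DTT, 1% DMSO, with 10 μM [33P]ATP, 120 min at room temp; P81 paper capture and counting. […]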
Test [1] deals with Tyk2-pSTAT4 (IL-12 induced pSTAT4). As to the kind of experiment: IL-12 induced pSTAT4 in human PBMC. Type of test: cell-based. Particulars: Homo sapiens, PBMC, 0.5 h, 1.7 ng/mL IL-12, 30 minutes. An outline of the steps:
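Thawed human PBMC (200,000 cells/well, serum-containing medium) preincubated with compound 1 hr at 37 C, 0.1% DMSO final. Stimulated with 1.7 ng/mL IL-12 (final) for 30 minutes; pSTAT4 and total STAT4 in lysates measured by MSD immunoassay.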

Test [2] deals with JAK2-pSTAT5 (GM-CSF induced pSTAT5). Nature of the test: GM-CSF induced pSTAT5 in human PBMC. Particulars: Homo sapiens, PBMC, 20 min, 5 ng/mL GM-CSF. The format is cell-based. An outline of the steps:
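Thawed human PBMC, 200,000 per well in serum-containing medium, were preincubated 1 hr at 37 C with compound in 0.1% DMSO. GM-CSF at 5 ng/mL final was added for 20 minutes, then pSTAT5 and total STAT5 in lysates were measured by MSD immunoassay.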

Sequence of JAK2 (O60674 whole entry): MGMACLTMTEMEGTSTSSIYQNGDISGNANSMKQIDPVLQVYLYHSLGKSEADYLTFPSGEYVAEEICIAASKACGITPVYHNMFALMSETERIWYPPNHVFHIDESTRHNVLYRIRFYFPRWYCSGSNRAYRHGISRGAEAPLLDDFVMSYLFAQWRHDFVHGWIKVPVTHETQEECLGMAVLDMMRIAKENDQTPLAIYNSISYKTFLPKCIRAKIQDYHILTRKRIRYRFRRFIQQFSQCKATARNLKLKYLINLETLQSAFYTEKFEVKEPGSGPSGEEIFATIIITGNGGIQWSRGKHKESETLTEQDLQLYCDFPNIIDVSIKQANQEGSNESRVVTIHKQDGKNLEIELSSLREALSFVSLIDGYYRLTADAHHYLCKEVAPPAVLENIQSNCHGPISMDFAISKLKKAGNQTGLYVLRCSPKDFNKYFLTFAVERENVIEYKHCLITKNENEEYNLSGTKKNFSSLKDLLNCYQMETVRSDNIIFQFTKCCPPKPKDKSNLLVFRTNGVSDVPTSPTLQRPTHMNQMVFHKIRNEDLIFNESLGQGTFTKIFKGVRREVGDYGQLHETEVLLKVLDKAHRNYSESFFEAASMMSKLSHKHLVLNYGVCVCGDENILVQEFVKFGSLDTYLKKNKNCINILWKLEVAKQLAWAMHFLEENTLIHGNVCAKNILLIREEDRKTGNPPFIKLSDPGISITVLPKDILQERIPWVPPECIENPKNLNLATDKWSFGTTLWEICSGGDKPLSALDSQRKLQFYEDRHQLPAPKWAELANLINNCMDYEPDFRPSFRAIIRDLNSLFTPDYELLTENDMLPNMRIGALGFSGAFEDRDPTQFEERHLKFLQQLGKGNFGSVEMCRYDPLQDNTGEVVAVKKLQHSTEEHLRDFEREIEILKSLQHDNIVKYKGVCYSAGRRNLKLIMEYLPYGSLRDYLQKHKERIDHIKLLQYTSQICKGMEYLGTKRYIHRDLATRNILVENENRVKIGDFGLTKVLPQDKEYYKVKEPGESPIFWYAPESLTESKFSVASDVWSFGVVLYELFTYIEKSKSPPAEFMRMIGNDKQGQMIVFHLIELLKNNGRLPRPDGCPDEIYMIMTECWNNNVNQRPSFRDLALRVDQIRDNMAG
Sequence of TYK2 (P29597 whole entry): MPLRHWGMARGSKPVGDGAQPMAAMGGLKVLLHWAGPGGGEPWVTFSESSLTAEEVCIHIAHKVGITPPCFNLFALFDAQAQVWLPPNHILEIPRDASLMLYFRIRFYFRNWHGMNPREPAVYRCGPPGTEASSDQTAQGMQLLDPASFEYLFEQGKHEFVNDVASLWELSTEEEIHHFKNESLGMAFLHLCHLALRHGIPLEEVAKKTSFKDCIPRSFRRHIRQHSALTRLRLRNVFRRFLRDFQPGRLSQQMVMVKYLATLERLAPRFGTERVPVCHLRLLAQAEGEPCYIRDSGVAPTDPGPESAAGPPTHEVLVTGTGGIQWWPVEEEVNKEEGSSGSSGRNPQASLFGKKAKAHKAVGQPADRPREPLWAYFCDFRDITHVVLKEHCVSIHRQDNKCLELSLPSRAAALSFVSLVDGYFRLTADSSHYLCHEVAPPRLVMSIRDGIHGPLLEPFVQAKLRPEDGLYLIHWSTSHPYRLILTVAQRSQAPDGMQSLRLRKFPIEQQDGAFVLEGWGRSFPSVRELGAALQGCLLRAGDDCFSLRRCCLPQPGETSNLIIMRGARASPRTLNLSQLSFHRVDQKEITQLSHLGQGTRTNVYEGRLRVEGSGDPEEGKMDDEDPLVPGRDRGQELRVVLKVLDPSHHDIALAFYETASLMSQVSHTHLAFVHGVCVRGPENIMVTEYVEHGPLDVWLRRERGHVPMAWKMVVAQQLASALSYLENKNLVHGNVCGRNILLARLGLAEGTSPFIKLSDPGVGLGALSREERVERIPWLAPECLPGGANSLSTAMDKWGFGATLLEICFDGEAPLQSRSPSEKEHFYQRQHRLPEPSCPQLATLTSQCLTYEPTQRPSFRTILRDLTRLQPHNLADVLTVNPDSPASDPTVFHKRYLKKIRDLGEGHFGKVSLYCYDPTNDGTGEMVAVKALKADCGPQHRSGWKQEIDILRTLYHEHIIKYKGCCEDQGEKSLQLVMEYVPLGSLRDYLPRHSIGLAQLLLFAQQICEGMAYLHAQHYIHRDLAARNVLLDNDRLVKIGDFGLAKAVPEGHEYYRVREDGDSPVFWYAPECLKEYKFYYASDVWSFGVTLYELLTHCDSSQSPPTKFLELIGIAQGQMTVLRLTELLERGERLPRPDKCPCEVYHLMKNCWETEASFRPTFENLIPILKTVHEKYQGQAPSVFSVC

A word on the Ki: it is the dissociation constant of the complex between target and ligand, obtained from inhibition or displacement. The term EC50 denotes the concentration needed to bring the measured effect to its halfway point. A high value points to a need for much substance. Consider `N#Cc1cccc(F)c1-c1cc(-n2ccc(N3CCC[C@@H](O)[C@@H](O)C3)n2)c2c(n1)CNC2=O` [I-179, 2-(4-(3-((3S,4R)-3,4-dihydroxyazepan-1-yl)-1H-pyrazol-1-yl)-5-oxo-6,7-dihydro-5H-pyrrolo[3,4-b]pyridin-2-yl)-3-fluorobenzonitrile], for which the figures for the Ki on TYK2 and on JAK2 were 0.0001 to 0.01 µM and 0.01 to 0.1 µM, respectively. The EC50 in test [1] is 0.03 to 0.1 µM; in test [2], more than 2 µM.
In the case of `[2H]C1([2H])C[C@@](O)(C([2H])([2H])[2H])C([2H])([2H])N1c1ccn(-c2cc(-c3c(F)cccc3C#N)nc3c2C(=O)NC3)n1` [I-183, (S)-3-fluoro-2-(4-(3-(3-hydroxy-3-(methyl-d3)pyrrolidin-1-yl-2,2,5,5-d4)-1H-pyrazol-1-yl)-5-oxo-6,7-dihydro-5H-pyrrolo[3,4-b]pyridin-2-yl)benzonitrile], the Ki at TYK2 and on JAK2 was 0.0001 to 0.01 µM throughout. For the same molecule, the EC50 in test [1] was 0.03 to 0.1 µM; in test [2], 0.1 to 2 µM.
Consider `N#Cc1cccc(F)c1-c1cc(-n2ccc([C@@H]3CCCO3)n2)c2c(n1)CNC2=O` [I-104, (S)-3-fluoro-2-(5-oxo-4-(3-(tetrahydrofuran-2-yl)-1H-pyrazol-1-yl)-6,7-dihydro-5H-pyrrolo[3,4-b]pyridin-2-yl)benzonitrile], for which the Ki on TYK2 was in the range of 0.0001 to 0.01 µM; on JAK2, 0.1 to 1 µM. The EC50 in test [1] and in test [2] was 0.1 to 2 µM in each case.
As for `C[C@@H]1CC(O)C[C@H](C)N1c1ccn(-c2cc(-c3c(F)cccc3C#N)nc3c2C(=O)NC3)n1` (stereo partly drawn) [I-107, 3-fluoro-2-(4-(3-((2S,6R)-4-hydroxy-2,6-dimethylpiperidin-1-yl)-1H-pyrazol-1-yl)-5-oxo-6,7-dihydro-5H-pyrrolo[3,4-b]pyridin-2-yl)benzonitrile], the Ki at TYK2 was 0.01 to 0.1 µM; on JAK2 it was 0.1 to 1 µM. Moreover, the EC50 in test [1] and in test [2] was 0.1 to 2 µM throughout.
In the case of `N#Cc1cccc(F)c1-c1cc(-c2ccn([C@@H]3COC[C@@H]3O)n2)c2c(n1)CNC2=O` [I-234, 3-fluoro-2-(4-(1-((3R,4R)-4-hydroxytetrahydrofuran-3-yl)-1H-pyrazol-3-yl)-5-oxo-6,7-dihydro-5H-pyrrolo[3,4-b]pyridin-2-yl)benzonitrile], the Ki lay within 0.01 to 0.1 µM on TYK2 and 0.1 to 1 µM at JAK2. In addition, the EC50 in test [1] was 0.1 to 2 µM; in test [2], more than 2 µM.
In the same order, the values of `CC1=C(c2ccn(-c3cc(-c4c(F)cccc4C#N)nc4c3C(=O)NC4)n2)CNC1=O` [I-227, 3-fluoro-2-(4-(3-(4-methyl-5-oxo-2,5-dihydro-1H-pyrrol-3-yl)-1H-pyrazol-1-yl)-5-oxo-6,7-dihydro-5H-pyrrolo[3,4-b]pyridin-2-yl)benzonitrile] are 0.0001 to 0.01 µM, 0.01 to 0.1 µM, 0.1 to 2 µM and 0.1 to 2 µM.
Taken in the same sequence, the figures for `CC(=O)N[C@H]1CCCN(c2ccn(-c3cc(-c4c(F)cccc4C#N)nc4c3C(=O)NC4)n2)C1` [I-130, (S)-N-(1-(1-(2-(2-cyano-6-fluorophenyl)-5-oxo-6,7-dihydro-5H-pyrrolo[3,4-b]pyridin-4-yl)-1H-pyrazol-3-yl)piperidin-3-yl)acetamide] were 0.0001 to 0.01 µM, 0.01 to 0.1 µM, 0.1 to 2 µM and 0.1 to 2 µM.
With `N#Cc1cccc(F)c1-c1cc(-n2ccc(N3CCC[C@@H](C(N)=O)C3)n2)c2c(n1)CNC2=O` [I-125, (R)-1-(1-(2-(2-cyano-6-fluorophenyl)-5-oxo-6,7-dihydro-5H-pyrrolo[3,4-b]pyridin-4-yl)-1H-pyrazol-3-yl)piperidine-3-carboxamide], the Ki on TYK2 lay within 0.0001 to 0.01 µM; at JAK2 it was 0.01 to 0.1 µM. Besides, the EC50 in test [1] and in test [2] was 0.1 to 2 µM each time.
